Measured values: patent publication US11560372B2, “Heterocyclic compounds useful as modulators of acetylcholine receptors” (TAKEDA PHARMACEUTICAL COMPANY LIMITED, priority 2017, dated 2023)

How the values were obtained:
MDR1 = target: T1, MDR1 (Homo sapiens, UniProt P08183); assay: MDR1 membrane permeability test; assay type: in vitro ADME; conditions: pH 7.4, efflux ratio (ER), Papp B to A / A to B, human MDR1-expressing LLC-PK1 cells, read-out: MDR1 substrate screening 1 μM (MDRSUB1)/Ratio (NUMBER)
T1 construct: expressed in transfected cells
T1 sequence (P08183 whole entry): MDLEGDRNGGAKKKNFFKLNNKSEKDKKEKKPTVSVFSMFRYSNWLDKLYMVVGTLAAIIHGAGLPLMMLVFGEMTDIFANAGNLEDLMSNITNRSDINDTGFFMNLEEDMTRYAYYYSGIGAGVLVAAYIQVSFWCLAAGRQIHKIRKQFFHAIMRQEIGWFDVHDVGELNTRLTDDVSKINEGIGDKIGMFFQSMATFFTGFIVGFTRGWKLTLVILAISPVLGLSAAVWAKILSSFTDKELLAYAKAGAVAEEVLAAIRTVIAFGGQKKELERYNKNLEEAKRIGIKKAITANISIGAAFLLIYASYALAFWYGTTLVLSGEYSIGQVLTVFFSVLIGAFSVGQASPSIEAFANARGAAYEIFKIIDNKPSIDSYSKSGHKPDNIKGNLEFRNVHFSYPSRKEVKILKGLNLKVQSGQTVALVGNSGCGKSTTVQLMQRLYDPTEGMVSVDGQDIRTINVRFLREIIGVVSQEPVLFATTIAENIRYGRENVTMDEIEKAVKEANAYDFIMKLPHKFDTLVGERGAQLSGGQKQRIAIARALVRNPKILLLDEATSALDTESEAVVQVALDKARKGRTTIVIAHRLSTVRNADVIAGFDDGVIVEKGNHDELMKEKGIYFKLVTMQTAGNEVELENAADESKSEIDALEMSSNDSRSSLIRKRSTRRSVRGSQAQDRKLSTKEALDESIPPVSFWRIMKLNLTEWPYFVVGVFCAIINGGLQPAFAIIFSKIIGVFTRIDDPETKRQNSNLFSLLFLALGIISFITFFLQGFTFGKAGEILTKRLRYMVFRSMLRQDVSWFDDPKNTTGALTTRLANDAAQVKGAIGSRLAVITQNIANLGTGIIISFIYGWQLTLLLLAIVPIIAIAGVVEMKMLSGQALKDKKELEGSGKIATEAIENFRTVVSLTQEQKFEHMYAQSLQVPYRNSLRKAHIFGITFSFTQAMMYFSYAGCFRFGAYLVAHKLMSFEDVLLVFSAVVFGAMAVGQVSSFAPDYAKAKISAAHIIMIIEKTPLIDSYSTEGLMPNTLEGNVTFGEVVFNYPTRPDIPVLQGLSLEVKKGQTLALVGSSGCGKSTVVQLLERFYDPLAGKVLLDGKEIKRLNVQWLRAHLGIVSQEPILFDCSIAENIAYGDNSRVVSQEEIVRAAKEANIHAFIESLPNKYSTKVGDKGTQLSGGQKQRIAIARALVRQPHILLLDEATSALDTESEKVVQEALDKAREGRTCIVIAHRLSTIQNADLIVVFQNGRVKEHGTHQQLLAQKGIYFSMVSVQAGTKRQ
Procedure, shortened: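 Human MDR1-expressing LLC-PK1 cells were grown for 3 days on 96-well polyethylene terephthalate Transwell supports (0.4 μm pores, 0.143 cm^2) seeded at 3.45×10^4 cells/well. After a 30 min preincubation in M199 medium with 10 mmol/L HEPES and 1% BSA (pH 7.4), drug was added apically or basolaterally. After 1 hr at 37° C, the opposite side was sampled and analyzed by LC-MS/MS. Efflux ratio was calculated from Papp B to A versus A to B.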

[1] = target: T2, human M1 receptor (hCHRM1) (Homo sapiens, UniProt P11229); assay: Measurement of M1 receptor positive allosteric modulator (M1PAM) activity, calcium fluorescence in CHO-K1 cells; assay type: cell-based; conditions: for activity (%) at 10 μM: 10 μM test compound, 100% = acetylcholine final concentration 1 μM, 0% = DMSO; for EC50: inflection point of concentration-dependent curve, in the presence of acetylcholine at EC20 concentration (final 0.8-1.0 nM), read-out: IP value
T2 construct: expressed in transfected cells
T2 sequence (P11229 1-460): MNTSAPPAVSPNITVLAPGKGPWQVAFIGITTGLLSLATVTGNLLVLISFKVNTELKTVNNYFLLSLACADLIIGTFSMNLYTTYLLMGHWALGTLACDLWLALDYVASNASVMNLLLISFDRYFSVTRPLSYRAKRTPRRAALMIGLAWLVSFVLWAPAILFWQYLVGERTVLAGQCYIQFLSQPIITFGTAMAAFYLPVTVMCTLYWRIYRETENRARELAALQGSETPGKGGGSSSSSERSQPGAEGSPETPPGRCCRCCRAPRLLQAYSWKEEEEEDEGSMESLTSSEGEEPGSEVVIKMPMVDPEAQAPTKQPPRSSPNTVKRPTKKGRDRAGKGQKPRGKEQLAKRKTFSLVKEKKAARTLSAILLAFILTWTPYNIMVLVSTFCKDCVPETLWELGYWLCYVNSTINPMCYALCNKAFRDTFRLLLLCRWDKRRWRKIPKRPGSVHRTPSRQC
Experimental: Measurement of M1 Receptor Positive Allosteric Modulator (M1PAM) Activity
The activity of a test compound in the presence of acetylcholine at EC20 concentration (final concentration 0.8-1.0 nM), which affords an action corresponding to about 20% of the maximum activity, was measured as PAM activity. The method is as follows. CHO-K1 cells stably expressing a human M1 receptor (hCHRM1) were plated on a 384-well black clear bottom plate (BD Falcon) at 5,000 cells/well, and cultured in an incubator at 37° C., 5% CO2 for 1 day. The medium in the cell plate was removed, and assay buffer A containing calcium indicator (Recording medium (DOJINDO LABORATORIES), 0.1% BSA (Wako Pure Chemical Industries, Ltd.), 2.5 μg/mL Fluo-4 AM (DOJINDO LABORATORIES), 0.08% Pluronic F127 (DOJINDO LABORATORIES), 1.25 mM probenecid (DOJINDO LABORATORIES)) was added at 30 μL/well. The cells were left standing in the incubator at 37° C., 5% CO2 for 30 min, and further left standing at room temperature for 30 min. A test compound prepared by diluting with assay buffer B (HBSS (Invitrogen), 20 mM HEPES (Invitrogen), 0.1% BSA) containing 3.2-4.0 nM acetylcholine was added at 10 μL/well, and the fluorescence was measured by FDSS/pCELL (Hamamatsu Photonics K.K.) for 1 min every for 1 second. With the definition that the amount of change in the fluorescence on addition of acetylcholine (final concentration 1 μM) is 100% and that on addition of DMSO instead of a test compound is 0%, the activity (%) of the test compound was calculated, and the inflection point in the concentration-dependent curve of the test compound was calculated as IP values.

Row | Compound | efflux ratio at 1 hr, 1 μM (MDR1) | activity (%) at 10 μM [1] [%] | EC50 [1] [nM]
1 | Cc1c(Cc2ccc(-c3cnn(CC4CC4)c3)nc2)cc2c(=O)n([C@H]3CCOC[C@@H]3O)cnc2c1C [Example 71, 1,5-anhydro-3-(6-((6-(1-(cyclopropylmethyl)-1H-pyrazol-4-yl)pyridin-3-yl)methyl)-7,8-dimethyl-4-oxoquinazolin-3(4H)-yl)-2,3-dideoxy-L-threo-pentitol] | 8 | 107 | 2.5
2 | Cc1c(Cc2ccc(-c3cnn(C4CCOCC4)c3)nc2)cc2c(=O)n([C@H]3CCOC[C@@H]3O)cnc2c1C [Example 75, 1,5-anhydro-2,3-dideoxy-3-(7,8-dimethyl-4-oxo-6-((6-(1-(tetrahydro-2H-pyran-4-yl)-1H-pyrazol-4-yl)pyridin-3-yl)methyl)quinazolin-3(4H)-yl)-L-threo-pentitol] | 13 | 108 | 3
3 | Cc1c(Cc2ccc(C(=O)NC3COC3)cc2)cc2c(=O)n([C@H]3CCOC[C@@H]3O)cnc2c1C [Example 27, 1,5-anhydro-2,3-dideoxy-3-(7,8-dimethyl-6-(4-(oxetan-3-ylcarbamoyl)benzyl)-4-oxoquinazolin-3(4H)-yl)-L-threo-pentitol] | 23 | 110 | 1.4
4 | Cc1c(Cc2ccc(-c3ccn(C)n3)nc2)cc2c(=O)n([C@H]3CCOC[C@@H]3O)cnc2c1Cl [Example 13, 1,5-anhydro-3-(8-chloro-7-methyl-6-((6-(1-methyl-1H-pyrazol-3-yl)pyridin-3-yl)methyl)-4-oxoquinazolin-3(4H)-yl)-2,3-dideoxy-L-threo-pentitol] | 38 | 101 | 1
